The test concerns Normal human fibroblasts. Briefly: In vitro migration of normal human fibroblasts (Oris migration plates, mitomycin C pretreatment, 40 h incubation, Calcein AM labelling). In kind it is cell-based. The following applies: for (Dmigr) mean migration distance of the cells: 40 h, mean ± SD of quadruplicates; for [(Dmigr) − (Dmigr)control]/(Dmigr)control, percentage of migratory effect relative to the control: vs FCS culture control. An excerpt:
The fibroblast migration test is a test commonly used in the cosmetics and pharmaceutical sector and is especially described in the international patent application published under the number WO 2010/056908 A1. It allows in vitro reproduction of the phenomenon of fibroblast migration; a decrease in the migratory capacities of the fibroblasts being reported as associated with aging of the skin (1) (4).
Normal human fibroblasts at the R5 passage were amplified in a T75 culture flask and then inoculated at 25 000 cells/well in specific culture plates. These plates are dedicated to migration (Oris™ from Platypus), integrating a central zone without initial deposition of cells (stoppers). After 96 hours of plate amplification and 2 hours before the treatment, all the wells were treated with mitomycin C (2 hours at 10 μg/ml), so as to stop the cell proliferation, and thus to observe only the migration phenomenon. The stoppers were removed, and the references, the products or standard medium for fibroblasts containing 2% fetal calf serum (FCS) were applied to the cells under 100 μl, and then incubated for 40 hours at 37° C. under 5% CO2. Each condition was performed in quadruplicate.
On conclusion of the incubation, the cells were labeled with Calcein AM (5 μM, 20 minutes at 37° C.), so as to visualize the viable cells by fluorescence (revelation of the cytoplasm). Photos were taken, after having inserted a black screen under the culture plates, so as to visualize only the zone where the cells were not deposited. Thus, only the cells which had migrated were photographed (×4 objective lens; with a ×0.7 reducer on the camera adapter). The mean migration distance of the cells (Dmigr) was measured with NIS-Elements-BR 3.0 (4 cells). The means and standard deviations of the distances were calculated on the quadruplicates. The percentages of migratory effect relative to the control, and also the statistics (Student test) were also calculated.

As for Epidermal Growth Factor (EGF), under “EGF 10 ng/ml”, the “(Dmigr) mean migration distance of the cells” value is 203 ± 20 μm and the “[(Dmigr) − (Dmigr)control]/(Dmigr)control, percentage of migratory effect relative to the control” value was “+21%”. In addition, under “EGF 50 ng/ml”, the “(Dmigr) mean migration distance of the cells” value is 212 ± 8 μm and the “[(Dmigr) − (Dmigr)control]/(Dmigr)control, percentage of migratory effect relative to the control” value is recorded as “+26%”. Further, the “Effect on migration distance of normal human fibroblasts (in words)” value (summary statement on Table 1, EGF at 10 and 50 ng/ml, compositions at 5 and 10 μg/ml) is recorded as “increase in the migration distance”.

The values above are taken from US20170304177A1, “USE OF ISOSORBIDE ESTER AND N-ACYLATED AMINO ACID DERIVATIVES AS ANTI-AGEING AGENT FOR THE HUMAN SKIN” (SOCIETE D'EXPLOITATION DE PRODUITS POUR LES INDUSTRIES …, priority 2014, published 2017).
